# Patent US20020137929A1, “1 - (3-heterocyclylphenyl) isothiourea, -isourea, -guanidine and -amidine herbicidal agents” (Intellectual Property Department, BASF Aktiengesellschaft, priority 1998, published 2002)
# What was measured:
# ABUTH (Velvetleaf) = assay: Postemergence herbicidal evaluation; assay type: in vivo, Abutilon theophrasti; conditions: postemergence
# How it was run: (§1)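 Compound is applied as a foliar spray to seedlings about two weeks old, formulated in equal parts acetone and water with 0.5% TWEEN 20 and delivered at 40 psi to give about 0.0156–0.500 kg per hectare. Injury is rated visually 0–9 after four to five weeks.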
# [1] = tested on: CHEAL (Lambsquarters, Common); assay: Postemergence herbicidal evaluation; assay type: in vivo, Chenopodium album; conditions: postemergence
# How it was run: as §1
# SETVI (Foxtail, Green) [2] = assay: Postemergence herbicidal evaluation; assay type: in vivo, Setaria viridis; conditions: postemergence
# How it was run: as §1
# [3] = tested on: GLXMAW (Soybean, Williams); assay: Postemergence herbicidal evaluation; assay type: in vivo, Glycine max, (L.) Merr. cv Williams; conditions: postemergence
# How it was run: as §1
# ORYSAT (Rice, Tebonnet) = assay: Postemergence herbicidal evaluation; assay type: in vivo, Oryza sativa, (L.) Tebonnet; conditions: postemergence
# How it was run: as §1
# [4] = tested on: TRZAWR (Wheat, Winter, cv Riband); assay: Postemergence herbicidal evaluation; assay type: in vivo, Triticum aestivum; conditions: postemergence
# How it was run: as §1
# ZEAMX (Corn, Field) = assay: Postemergence herbicidal evaluation; assay type: in vivo, Zea mays; conditions: postemergence
# How it was run: as §1
# AMBEL (Ragweed, Common) = assay: Preemergence herbicidal evaluation; assay type: in vivo, Ambrosia artemisifolia; conditions: rated 4-5 weeks after treatment
# How it was run: (§2)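 Scores use a 0–9 visual scale covering stand, vigor, malformation, size and chlorosis relative to controls, rated four to five weeks after treatment. Before emergence, soil-planted seeds were sprayed with compound in aqueous acetone at roughly 0.0156–0.500 kg/ha and held in the greenhouse.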
# GALAP (Galium) = assay: Preemergence herbicidal evaluation; assay type: in vivo, Galium aparine; conditions: rated 4-5 weeks after treatment
# How it was run: as §2
# SETVI (Foxtail, Green) [5] = assay: Preemergence herbicidal evaluation; assay type: in vivo, Setaria viridis; conditions: rated 4-5 weeks after treatment
# How it was run: as §2
# CYPIR (Rice Flatsedge) = assay: Preemergence weed control under flooded paddy conditions; assay type: in vivo, Cyperus iria; conditions: rated 3-4 weeks after treatment
# How it was run: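 Herbicidal effect is scored visually on a 0-9 scale against an untreated control, three to four weeks after compounds are pipetted into the flood water (1.5 to 3 cm deep) over seeds planted in silt loam at 0.5 cm depth. Rates: about 0.0313 to 0.500 kg/ha.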
# [6] = tested on: ECHORC (Watergrass (Calif.)); assay: Postemergence weed control under flooded paddy conditions; assay type: in vivo, Echinochloa oryzoides; conditions: postemergence weeds, rated 3 to 4 weeks after treatment
# How it was run: (§3)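 Herbicidal effect is judged by eye on a 0–9 scale versus control, 3–4 weeks after dosing. Dosing is into flood water kept 1.5–3 cm over the soil, at about 0.0313–0.500 kg/ha in aqueous/acetone 50/50 v/v, on 3–5 cm weeds and 1.5–2.5-leaf rice seedlings.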
# CYPSE (Flatsedge) = assay: as above; assay type: in vivo, Cyperus serotinus; conditions: postemergence weeds, rated 3 to 4 weeks after treatment
# How it was run: as §3
# [7] = tested on: SAGPY (Arrowhead (Pygmaea)); assay: as above; assay type: in vivo, Sagittaria pygmaea; conditions: postemergence weeds, rated 3 to 4 weeks after treatment
# How it was run: as §3
smiles,measurement,setting,value
"C=CCOC(=O)CC1SC(=Nc2cc(-n3c(=O)cc(C(F)(F)F)n(C)c3=O)c(F)cc2Cl)N(CC=C)C1=O (centres unmarked) [Compound 65, Allyl 3-allyl-2-{(2-chloro-5-[3,6-dihydro-3-methyl-2,6-dioxo-4-(trifluoromethyl)-1(2H)-pyrimidinyl]-4-fluorophenyl}imino}-4-oxo-5-thiazolidineacetate]",ABUTH herbicidal rating,ABUTH (Velvetleaf); rate 0.0158 kg/ha,9.0
same,ABUTH herbicidal rating,ABUTH (Velvetleaf); rate 0.0315 kg/ha,9.0
same,ABUTH herbicidal rating,ABUTH (Velvetleaf); rate 0.0630 kg/ha,9.0
same,CHEAL herbicidal rating,[1]; rate 0.0158 kg/ha,9.0
same,CHEAL herbicidal rating,[1]; rate 0.0315 kg/ha,9.0
same,CHEAL herbicidal rating,[1]; rate 0.0630 kg/ha,9.0
same,SETVI herbicidal rating,"SETVI (Foxtail, Green) [2]; rate 0.0158 kg/ha",7.0
same,SETVI herbicidal rating,"SETVI (Foxtail, Green) [2]; rate 0.0315 kg/ha",7.0
same,SETVI herbicidal rating,"SETVI (Foxtail, Green) [2]; rate 0.0630 kg/ha",9.0
same,GLXMAW herbicidal rating,[3]; rate 0.0158 kg/ha,7.5
same,GLXMAW herbicidal rating,[3]; rate 0.0315 kg/ha,8.0
same,GLXMAW herbicidal rating,[3]; rate 0.0630 kg/ha,7.5
same,ORYSAT herbicidal rating,"ORYSAT (Rice, Tebonnet); rate 0.0158 kg/ha",4.0
same,ORYSAT herbicidal rating,"ORYSAT (Rice, Tebonnet); rate 0.0315 kg/ha",6.0
same,ORYSAT herbicidal rating,"ORYSAT (Rice, Tebonnet); rate 0.0630 kg/ha",6.0
same,TRZAWR herbicidal rating,[4]; rate 0.0158 kg/ha,4.0
same,TRZAWR herbicidal rating,[4]; rate 0.0315 kg/ha,7.0
same,TRZAWR herbicidal rating,[4]; rate 0.0630 kg/ha,7.0
same,ZEAMX herbicidal rating,"ZEAMX (Corn, Field); rate 0.0158 kg/ha",8.0
same,ZEAMX herbicidal rating,"ZEAMX (Corn, Field); rate 0.0315 kg/ha",8.0
same,ZEAMX herbicidal rating,"ZEAMX (Corn, Field); rate 0.0630 kg/ha",7.5
same,Preemergence herbicidal rating AMBEL,"AMBEL (Ragweed, Common); rate 0.0156 kg/ha",1.0
same,Preemergence herbicidal rating AMBEL,"AMBEL (Ragweed, Common); rate 0.0313 kg/ha",2.0
same,Preemergence herbicidal rating AMBEL,"AMBEL (Ragweed, Common); rate 0.0625 kg/ha",4.0
same,Preemergence herbicidal rating AMBEL,"AMBEL (Ragweed, Common); rate 0.1250 kg/ha",9.0
same,Preemergence herbicidal rating AMBEL,"AMBEL (Ragweed, Common); rate 0.2500 kg/ha",9.0
same,Preemergence herbicidal rating GALAP,GALAP (Galium); rate 0.0156 kg/ha,0.0
same,Preemergence herbicidal rating GALAP,GALAP (Galium); rate 0.0313 kg/ha,0.0
same,Preemergence herbicidal rating GALAP,GALAP (Galium); rate 0.0625 kg/ha,0.0
same,Preemergence herbicidal rating GALAP,GALAP (Galium); rate 0.1250 kg/ha,1.0
same,Preemergence herbicidal rating GALAP,GALAP (Galium); rate 0.2500 kg/ha,9.0
same,Preemergence herbicidal rating SETVI,"SETVI (Foxtail, Green) [5]; rate 0.0156 kg/ha",0.0
same,Preemergence herbicidal rating SETVI,"SETVI (Foxtail, Green) [5]; rate 0.0313 kg/ha",1.0
same,Preemergence herbicidal rating SETVI,"SETVI (Foxtail, Green) [5]; rate 0.0625 kg/ha",2.0
same,Preemergence herbicidal rating SETVI,"SETVI (Foxtail, Green) [5]; rate 0.1250 kg/ha",7.0
same,Preemergence herbicidal rating SETVI,"SETVI (Foxtail, Green) [5]; rate 0.2500 kg/ha",9.0
same,CYPIR herbicidal effect rating,CYPIR (Rice Flatsedge); 0.0313 kg/ha,6.0
same,CYPIR herbicidal effect rating,CYPIR (Rice Flatsedge); 0.0625 kg/ha,7.0
same,CYPIR herbicidal effect rating,CYPIR (Rice Flatsedge); 0.1250 kg/ha,7.0
same,CYPIR herbicidal effect rating,CYPIR (Rice Flatsedge); 0.2500 kg/ha,8.0
same,Herbicidal rating ECHORC,[6]; Rate 0.0313 kg/ha,5.0
same,Herbicidal rating ECHORC,[6]; Rate 0.0625 kg/ha,5.0
same,Herbicidal rating ECHORC,[6]; Rate 0.1250 kg/ha,6.0
same,Herbicidal rating ECHORC,[6]; Rate 0.2500 kg/ha,7.0
same,Herbicidal rating CYPSE,CYPSE (Flatsedge); Rate 0.0313 kg/ha,0.0
same,Herbicidal rating CYPSE,CYPSE (Flatsedge); Rate 0.0625 kg/ha,0.0
same,Herbicidal rating CYPSE,CYPSE (Flatsedge); Rate 0.1250 kg/ha,0.0
same,Herbicidal rating CYPSE,CYPSE (Flatsedge); Rate 0.2500 kg/ha,0.0
same,Herbicidal rating SAGPY,[7]; Rate 0.0313 kg/ha,2.0
same,Herbicidal rating SAGPY,[7]; Rate 0.0625 kg/ha,4.0
same,Herbicidal rating SAGPY,[7]; Rate 0.1250 kg/ha,5.0
same,Herbicidal rating SAGPY,[7]; Rate 0.2500 kg/ha,7.0
"CC(C)C[C@@H](C(=O)O)N1C(=O)CSC1=Nc1cc(-n2c(=O)cc(C(F)(F)F)n(C)c2=O)c(F)cc1Cl [Compound 71, α-Isobutyl-2-{{2-chloro-5-[3,6-dihydro-3-methyl-2,6-dioxo-4-(trifluoromethyl)-1(2H)-pyrimidinyl]-4-fluorophenyl}imino}-4-oxo-3-thiazolidineacetic acid, L-]",ABUTH herbicidal rating,ABUTH (Velvetleaf); rate 0.0158 kg/ha,9.0
same,ABUTH herbicidal rating,ABUTH (Velvetleaf); rate 0.0315 kg/ha,9.0
same,ABUTH herbicidal rating,ABUTH (Velvetleaf); rate 0.0630 kg/ha,9.0
same,CHEAL herbicidal rating,[1]; rate 0.0158 kg/ha,6.0
same,CHEAL herbicidal rating,[1]; rate 0.0315 kg/ha,7.0
same,SETVI herbicidal rating,"SETVI (Foxtail, Green) [2]; rate 0.0158 kg/ha",4.0
same,SETVI herbicidal rating,"SETVI (Foxtail, Green) [2]; rate 0.0315 kg/ha",7.0
same,SETVI herbicidal rating,"SETVI (Foxtail, Green) [2]; rate 0.0630 kg/ha",9.0
same,GLXMAW herbicidal rating,[3]; rate 0.0158 kg/ha,6.5
same,GLXMAW herbicidal rating,[3]; rate 0.0315 kg/ha,7.5
same,GLXMAW herbicidal rating,[3]; rate 0.0630 kg/ha,7.5
same,ORYSAT herbicidal rating,"ORYSAT (Rice, Tebonnet); rate 0.0158 kg/ha",3.0
same,ORYSAT herbicidal rating,"ORYSAT (Rice, Tebonnet); rate 0.0315 kg/ha",3.5
same,ORYSAT herbicidal rating,"ORYSAT (Rice, Tebonnet); rate 0.0630 kg/ha",4.5
same,TRZAWR herbicidal rating,[4]; rate 0.0158 kg/ha,2.5
same,TRZAWR herbicidal rating,[4]; rate 0.0315 kg/ha,3.5
same,TRZAWR herbicidal rating,[4]; rate 0.0630 kg/ha,4.5
same,ZEAMX herbicidal rating,"ZEAMX (Corn, Field); rate 0.0158 kg/ha",5.0
same,ZEAMX herbicidal rating,"ZEAMX (Corn, Field); rate 0.0315 kg/ha",5.0
same,ZEAMX herbicidal rating,"ZEAMX (Corn, Field); rate 0.0630 kg/ha",7.0
same,Preemergence herbicidal rating AMBEL,"AMBEL (Ragweed, Common); rate 0.0156 kg/ha",1.0
same,Preemergence herbicidal rating AMBEL,"AMBEL (Ragweed, Common); rate 0.0313 kg/ha",2.0
same,Preemergence herbicidal rating AMBEL,"AMBEL (Ragweed, Common); rate 0.0625 kg/ha",7.0
same,Preemergence herbicidal rating AMBEL,"AMBEL (Ragweed, Common); rate 0.1250 kg/ha",9.0
same,Preemergence herbicidal rating AMBEL,"AMBEL (Ragweed, Common); rate 0.2500 kg/ha",9.0
same,Preemergence herbicidal rating GALAP,GALAP (Galium); rate 0.0156 kg/ha,0.0
same,Preemergence herbicidal rating GALAP,GALAP (Galium); rate 0.0313 kg/ha,0.0
same,Preemergence herbicidal rating GALAP,GALAP (Galium); rate 0.0625 kg/ha,0.0
same,Preemergence herbicidal rating GALAP,GALAP (Galium); rate 0.1250 kg/ha,9.0
same,Preemergence herbicidal rating GALAP,GALAP (Galium); rate 0.2500 kg/ha,6.0
same,Preemergence herbicidal rating SETVI,"SETVI (Foxtail, Green) [5]; rate 0.0156 kg/ha",0.0
same,Preemergence herbicidal rating SETVI,"SETVI (Foxtail, Green) [5]; rate 0.0313 kg/ha",0.0
same,Preemergence herbicidal rating SETVI,"SETVI (Foxtail, Green) [5]; rate 0.0625 kg/ha",0.0
same,Preemergence herbicidal rating SETVI,"SETVI (Foxtail, Green) [5]; rate 0.1250 kg/ha",4.0
same,Preemergence herbicidal rating SETVI,"SETVI (Foxtail, Green) [5]; rate 0.2500 kg/ha",9.0
same,CYPIR herbicidal effect rating,CYPIR (Rice Flatsedge); 0.1250 kg/ha,3.0
same,CYPIR herbicidal effect rating,CYPIR (Rice Flatsedge); 0.2500 kg/ha,7.0
same,Herbicidal rating ECHORC,[6]; Rate 0.1250 kg/ha,0.0
same,Herbicidal rating ECHORC,[6]; Rate 0.2500 kg/ha,7.0
same,Herbicidal rating CYPSE,CYPSE (Flatsedge); Rate 0.1250 kg/ha,3.0
same,Herbicidal rating CYPSE,CYPSE (Flatsedge); Rate 0.2500 kg/ha,3.0
same,Herbicidal rating SAGPY,[7]; Rate 0.1250 kg/ha,0.0
same,Herbicidal rating SAGPY,[7]; Rate 0.2500 kg/ha,0.0
